Source: patent US11000555B2, “Method for preparing a limax compound and therapeutic use thereof” (GUANGXI JIUFU BIOTECHNOLOGY CO., LTD, priority 2017, dated 2021)
Read-outs that look alike come from different tables or passages of the source. Marks after values point to notes of the source that are not given here.

What was measured:
mice [1] = conditions: mouse, in vivo; for Duration of mice staying in companion box: both, Kunming
Text: A conditioned place preference box was composed of black and white cuboids (30 cm×15 cm×15 cm), a movable partition plate is arranged in the middle of the box body to divide the box into two cuboids of the same volume, and the rat and mice can freely move from one cuboid to another when the partition plate is removed. Inner surfaces of one cuboid of the box body except the glass panel is painted black, the bottom plate is made to be a rough surface by using a soft blanket, the other cuboid of the box body except the glass surface is painted white, the bottom plate is made to be a smooth surface, and the whole experimental box has visual and tactile cues.
Mice were tested for natural preference one day prior to dosing to eliminate mice with significant preference on one side of the box and to exclude the effects of unconditioned place preference on the experimental results.
Each group of animals was administered twice daily at an interval of 8 hours (8:00, 16:00). […] The mice were placed in the white cuboid, which was the non-preferred side, after administration, and placed in the black cuboid, which was the preferred side, after administration of normal saline. The mice were kept in the box for 45 min, trained for 6 days. The place preference test was performed 24 h after the last administration. The partition plate of the preferred cuboid was removed, the mice were placed in the middle of the box one by one and observed for 15 minutes, and the duration of each of the mice staying in each cuboid was recorded on the basis of the positions of their heads.

[2] = test system: morphine-induced place preference of mice; assay: Conditioned place preference of morphine-induced mice; format: in vivo, Kunming mice
Experimental: The mice were acclimatized for 3 days, the natural place preference time of the mice was measured before the administration, so that the mice with obvious preference on one cuboid of the experimental box were excluded to clear the effect of unconditional place preference on the results. […] The observation was conducted under sound insulation conditions. […] Thus, the white cuboid was used as the non-preferred side (i.e., the companion box).
After 6 consecutive days of training and administration, the mice developed conditioned place preference.
Each group was administered for 3 consecutive days.

mice [3] = assay: Mouse spontaneous activity test; format: in vivo, Kunming mice
Experimental: Forty Kunming mice, half males and half females, were fasted for 12 h but free to drink water. The mice were randomly divided into four groups: a blank control group, a low does Compound group (0.4 g/kg, ig), a high dose Compound group (0.8 g/kg, ig) and a positive drug control group (Estazolam, 2 mg/kg). The mice were placed into the YLS-1A multifunctional recorder for spontaneous activities of small animals. After 5 minutes of adaptation, the number of the mice's spontaneous activities before administration were recorded, and the recording lasted for 10 minutes. The room was kept quiet during recording, at a room temperature of 20-24° C. After this, each group of mice was administered according to the above doses, and the number of spontaneous activities within 10 min were recorded 45 min later. The blank control group was given the same volume of normal saline (ig).

mice [4] = assay: Sleeping duration induced by a threshold dose of pentobarbital sodium; format: in vivo, Kunming mice; conditions: for Sleeping duration: pentobarbital sodium 50 mg/kg ip
Experimental: Forty Kunming mice, half males and half females, were fasted for 12 h but free to drink water. The mice were randomly divided into four groups: a blank control group, a low does Compound group (0.4 g/kg, ig), a high dose Compound group (0.8 g/kg, ig) and a positive drug control group (Estazolam, 2 mg/kg). each group of mice was administered according to the above doses (ig), and the blank control group was given the same volume of normal saline. Forty-five minutes later, each mouse was given (ip) 50 mg/kg pentobarbital sodium, and then the sleeping duration of each group of mice was recorded (taking the disappear of righting reflex after administration as the indicator of falling asleep, and the recovery of righting reflex as the end time of the sleep).

morphine-dependent rats = assay: Therapeutic effect on naloxone-induced withdrawal symptoms of morphine-dependent rats; format: in vivo, Sprague-Dawley (SD) rats; conditions: for Scores of induced withdrawal symptoms of rats: naloxone 5.0 mg/kg ip, 30 min
Experimental: The administration continued for 3 days for each group of rats. Rats were free to drink and eat. Naloxone (5.0 mg/kg, ip) was given 45 min after administrations on d1 and d3 during the treatment to induce withdrawal symptoms, and withdrawal reaction in 30 min and body weights one hour before and after the inducement were observed.
Times of shaking like a wet dog, stereotyped acts, erecting and jumping in 30 minutes were directly scored; symptoms such as ptosis, irritability, tooth tremor, chewing, pilus erection, abnormal posture and rapid respiration were scored every 5 minutes; symptoms such as diarrhea, lacrimation, salivation and rhinorrhea were scored every 30 minutes. The sum of all scores was the total score of the withdrawal reaction. See Appendix Table 2.

mice [5] = assay: Acetic acid writhing test of mice; format: in vivo, Kunming mice; conditions: for Times of writhing: 0.6% acetic acid ip, in 20 min
Experimental: Forty Kunming mice, male, were fasted for 12 h before the experiment but free to drink water. They were randomly divided into 4 groups: a blank control group, a low dose Compound group, a high dose Compound group, and a positive control group. […] The mice were administered (ig) at a low dose (0.4 g/kg) and a high dose (0.8 g/kg) of the compound, at a volume of 0.2 ml per 10 g body weight. The positive control group was administered (ip) methadone (20 mg/kg) and the blank control group was given (ig) the same volume of normal saline. Forty-five minutes after administration, each mouse was given (ip) 0.6% acetic acid, 0.2 ml for each. The mice were then observed for writhing reaction, with abdominal contraction and hind limb extension or hip elevation regarded as positive. Times of writhing in 20 min were recorded starting from 5 min after acetic acid injection. The analgesic effect was evaluated by taking completely inhibiting writhing reaction induced by acetic acid as an indicator.

## CC1(C)O[C@H]2CC[C@@]3(C)[C@@H]([C@@H](O)[C@H](O)[C@@H]3[C@@](C)(O)CC[C@@H]3OC(C)(C)[C@H]4CC[C@]3(C)O4)[C@]2(C)CC[C@H]1O [the compound, limaxol A]
Mice [1]
  Duration of mice staying in companion box: 334.8 ± 94.96 s
  Psychological dependence, place preference test: no tendency of psychological dependence
Mice [1]; 6 days
  Duration of mice staying in companion box: 385.2 ± 188.16 s
[2]; After administration, high dose 0.8 g/kg ig 3 days + morphine 9 mg/kg sc, 15 min observation
  Duration of mice staying in companion box: 511.8 ± 90.66*^ΔΔ s
[2]; After administration, low dose 0.4 g/kg ig 3 days + morphine 9 mg/kg sc, 15 min observation
  Duration of mice staying in companion box: 438.1 ± 116.45^#Δ s
[2]; Before administration (base line), high dose 0.8 g/kg + morphine 9 mg/kg group
  Duration of mice staying in companion box: 256.3 ± 114.43 s
[2]; Before administration (base line), low dose 0.4 g/kg + morphine 9 mg/kg group
  Duration of mice staying in companion box: 296.0 ± 142.93 s
[2]; two doses (0.4, 0.8 g/kg) ig for 3 days
  Effect on conditioned place preference of the morphine-induced mice: no significant effect
Mice [3]; 0.4, 0.8 g/kg, ig
  Effect on spontaneous activity of mice: significantly reduce the spontaneous activity of mice
Mice [3]; After administration (45 min), high dose 0.8 g/kg ig
  Number of spontaneous activities: 84.8 ± 31.69*^Δ▴ per 10 min
Mice [3]; After administration (45 min), low dose 0.4 g/kg ig
  Number of spontaneous activities: 104.6 ± 42.12^Δ▴▴ per 10 min
Mice [3]; Before administration, high dose group
  Number of spontaneous activities: 145.5 ± 82.57 per 10 min
Mice [3]; Before administration, low dose group
  Number of spontaneous activities: 165.5 ± 69.20 per 10 min
Mice [4]; 0.4, 0.8 g/kg, ig
  Effect on sleeping duration induced by pentobarbital sodium: significantly prolong the sleeping duration
Mice [4]; high dose 0.8 g/kg ig
  Sleeping duration: 32.8 ± 9.56*^ΔΔ min
Mice [4]; low dose 0.4 g/kg ig
  Sleeping duration: 39.5 ± 11.46**^Δ min
morphine-dependent rats; d 1, high dose 0.6 g/kg ig
  Body Weight Change (Body Weight before Inducement − Body Weight after Inducement): 14.7 ± 4.08 g
  Scores of induced withdrawal symptoms of rats: 53.8 ± 16.23
morphine-dependent rats; d 1, low dose 0.3 g/kg ig
  Body Weight Change (Body Weight before Inducement − Body Weight after Inducement): 11.8 ± 3.25 g
  Scores of induced withdrawal symptoms of rats: 74.9 ± 42.03
morphine-dependent rats; d 3, high dose 0.6 g/kg ig
  Body Weight Change (Body Weight before Inducement − Body Weight after Inducement): 1.9 ± 2.13 g
  Scores of induced withdrawal symptoms of rats: 22.1 ± 10.90
morphine-dependent rats; d 3, low dose 0.3 g/kg ig
  Body Weight Change (Body Weight before Inducement − Body Weight after Inducement): 4.5 ± 2.59 g
  Scores of induced withdrawal symptoms of rats: 25.5 ± 12.26
morphine-dependent rats; two doses (0.3, 0.6 g/kg) ig
  Effect on changes of the body weight of rats: no significant effect
  Effect on withdrawal symptoms of morphine-dependent rats: partially control the withdrawal symptoms
Mice [5]; high dose 0.8 g/kg ig
  Times of writhing: 39.6 ± 13.21
Mice [5]; low dose 0.4 g/kg ig
  Times of writhing: 37.10 ± 15.69
Mice [5]; single administration 0.4, 0.8 g/kg, ig
  Analgesic effect, acetic acid writhing test: no obvious analgesic effect
